Where a SMILES comes first, the peptide text is derived from it.
What was measured:
S. Typhimurium [1] = test system: S. Typhimurium; set-up: species or system Salmonella Typhimurium 14028 (in mice); conditions: mouse, in vivo, po
S. Typhimurium [2] = assay: Serum cytokine levels of mice infected with S. Typhimurium (ELISA); format: in vivo, Salmonella Typhimurium 14028 (in mice); conditions: 24 h, n = 6
Procedure: At 24 h post-infection, blood samples of the mice were collected to detect cytokines IL-6 (# EMC004.96), tumor necrosis factor-α (TNF-α, # EMC102a.96), IL-1β (# EMC001b.96), and IL-12 (# EMC006.96) using ELISA kits (Neo-bioscience Technology Company, Shenzhen China). For cytokine detections in the WT mice with or without treatment of PBD-2, the blood samples were collected from the WT mice orally administered with solely 2.5 × 10^8 CFU of S. Typhimurium (n = 6) or together with PBD-2 at 5 mg/kg body weight (n = 6).

p38 = assay: Western blot of p38 and p-p38 in RAW 264.7 cells; format: cell-based, mouse; conditions: LPS 30 min with various concentrations of PBD-2 (Figure S4)
Procedure: (§1) RAW 264.7 cells were treated with LPS (1 μg/ml) alone or together with PBD-2 (10 μg/mL). […] Proteins were firstly analyzed with SDS-PAGE and then electro-transferred onto a PVDF (#ISEQ00010, Biosharp®, Beijing, China) membrane. The PVDF membrane was blocked with 1/100 bovine serum albumin (BSA, #V900933-100G, VETEC, Sigma-Aldrich®, St. Louis, MO, USA) at 10 μg/ml at 37°C for 2 h, washed with PBST five times, incubated with the antisera against p-p65 (# 3033), p65 (# 4764), p-ERK (# 4370), ERK (# 4695), p-p38 (# 4511), p38 (# 8690), p-JNK (# 4668), JNK (# 9258) (Cell Signaling Technology®, Danvers, MA, USA), and β-actin (# AA128, Beyotime®, Shanghai, China) at 2 μg/ml at 37°C for 2 h and washed five times again. The PVDF membrane was subsequently incubated with 1 μg/ml secondary antibody, namely, goat anti-rabbit IgG (# 7074S, Cell Signaling Technology®, Danvers, MA, USA), at 37°C for 2 h and washed five times. Lastly, immune-reactive bands were detected using an ECF Western blot system (Tanon 5200 Multi, Shanghai, China) and quantified using AlphaImager 2200 analysis software.
(§2) Supplementary file Image_4.TIF: Figure S4 Effects of PBD-2 on ERK, p38, and JNK signaling pathways. Cells were treated with LPS for 30 min with or without various concentrations of PBD-2. […] The signal intensity of each band was quantified (B–D). […]

JNK = assay: Western blot of JNK and p-JNK in RAW 264.7 cells; format: cell-based, mouse; conditions: LPS 30 min with various concentrations of PBD-2 (Figure S4)
Procedure: as §1, §2

NF-κB = NF-κB promoter activity, luciferase reporter assay in RAW 264.7 cells; format: cell-based, mouse; conditions: n = 6
Procedure: A luciferase reporter assay was used to detect the promoter activity of NF-κB. RAW 264.7 cells were seeded in a 24-well plate for 24 h and then cotransfected with 800 ng/well of the NF-κB reporter plasmid (pGL3-Basic) and 20 ng/well of pLR-TK. WT […] luciferase (Rluc) served as the reporter gene control vector. […] In the inhibition assay, the cells were pre-treated with 1 μg/ml TLR4 inhibitor for 1 h and treated with LPS (1 μg/ml) alone or together with PBD-2 (10 μg/mL) for 24 h (n = 6 each group). Luciferase units were detected to show the promoter activity of NF-κB ([28]).

bacteria = conditions: ref [11], cited from earlier work
Description: Another fact is that some vi ...

[3] = test system: dextran sodium sulfate (DSS) in mice; conditions: ref [33], cited from earlier work
Description: The antibiotic resistance of pathogenic bacteria has become a global threat ([30]). Defensins are natural peptides secreted by many species and implicated in resisting bacterial infection ([31]). PBD-2 is one of the defensins expressed in pigs. […] The invasion of S. Typhimurium can increase the expression of PBD-2 in porcine epithelial cells ([32]). […] PBD-2 also improves the growth perf ... || The colitis caused by S. Typhimurium mainly results from intestinal mucosal inflammation after the breakage of intestinal epithelial barrier by pathogens ([26]). […] AMPs have various structures which may lead to their different act ...

[4] = ref [11]; cited from earlier work
S. Typhimurium [5] = assay: Bactericidal activity assay (colony counting); conditions: 5000 CFU, 1 h, 37°C, n = 6
Procedure: S. Typhimurium cells were cultured to mid-log phase (OD600nm = 0.7) in TSB. The cultures were centrifuged for 10 min at 1,000 × g, and the cell pellets were diluted in assay medium (10 mM phosphate, pH 7.0, with 1/100 TSB). The antimicrobial activities of PBD-2, TG serum and tissue homogenates were determined by colony counting assay. The mice serum, caecum, colon, or duodenum homogenates were heat inactivated at 56°C for 20 min to exclude the possible effect of complement in tissues. As a control, PBD-2 solution in PBS (50 μg/ml) was also heat-treated at 56°C for 20 min. Afterwards, 5000 CFUs of S. Typhimurium were mixed with 100 μl of each sample in a centrifuge tube at 37°C for 1 h. After incubation, 10 serial dilutions from 10 to 1,000-fold in TSB were conducted, and the diluted bacterial cultures were transferred onto TSA plates and incubated at 37°C for 24 h. The numbers of bacterial CFUs were recorded.

S. Typhimurium [6] = assay: Bacterial load in caecum of mice infected with S. Typhimurium; conditions: PBD-2 expressed in TG mice; oral 2.5 × 10^8 CFU; 24 h post-infection; n = 6; vs WT
Procedure: Four infection experiments were conducted to determine the resistance to S. Typhimurium of the TG mice. For body weight measurements, 7 WT and 7 TG mice were orally administered with 2.5 × 10^8 CFU of S. Typhimurium, and the body weight of each mouse was measured on days 1, 2, 3, 4, and 5 after infection. For the detection of the tissue weight ratios, bacterial loads in tissues and tissue lesions after S. Typhimurium infection, 9 WT and 8 TG mice were orally administered with 2.5 × 10^8 CFU of S. Typhimurium. The spleen, caecum and body weights of the mice were weighed at 24 h post-infection. The bacterial loads in the tissues were also measured ([26]). The spleen and caecum were weighed and homogenized in cold PBS at a ratio of 4 ml per gram of tissue and coated plates. The bacterial numbers in the homogenates were counted by serially diluting the homogenates and spreading on plates. Caeca were harvested for histopathological analysis by using the methods described above. The intestinal damage, including epithelial damage, submucosal oedema, and neutrophil aggregation, was observed.

[7] = PBD-2 expressed in TG mice, oral 2.5 × 10^8 CFU S. Typhimurium, vs WT
[8] = synthetic PBD-2 5 mg/kg orally with 2.5 × 10^8 CFU S. Typhimurium, WT mice, vs infection alone

CC[C@H](C)[C@H](NC(=O)[C@@H]1CSSC[C@@H]2NC(=O)[C@@H]3CCCN3C(=O)[C@H](CO)NC(=O)[C@H](Cc3ccccc3)NC(=O)[C@H](CC(N)=O)NC(=O)[C@@H]3CSSC[C@H](NC(=O)[C@H]([C@@H](C)O)NC(=O)CNC(=O)[C@H](CCC(=O)O)NC(=O)[C@H]([C@@H](C)CC)NC(=O)[C@H](CCCNC(=N)N)NC(=O)[C@H](CC(N)=O)NC(=O)[C@H](Cc4ccccc4)NC(=O)[C@H](CC(C)C)NC(=O)[C@@H]4CCCN4C2=O)C(=O)N[C@@H](Cc2ccc(O)cc2)C(=O)N[C@@H](CO)C(=O)NCC(=O)N[C@@H](CCCCN)C(=O)N[C@@H](C)C(=O)N[C@@H](CCCCN)C(=O)N[C@@H](CSSC[C@H](NC(=O)[C@@H](NC(=O)[C@H](Cc2ccc(O)cc2)NC(=O)[C@H](Cc2c[nH]cn2)NC(=O)[C@@H](N)CC(=O)O)[C@@H](C)CC)C(=O)N[C@@H](C)C(=O)N[C@@H](CCCCN)C(=O)N[C@@H](CCCCN)C(=O)NCC(=O)NCC(=O)N[C@@H]([C@@H](C)O)C(=O)N3)C(=O)N1)C(=O)N[C@@H](CCCNC(=N)N)C(=O)O [PBD-2, Porcine beta-defensin 2] (HELM PEPTIDE1{D.H.Y.I.C.A.K.K.G.G.T.C.N.F.S.P.C.P.L.F.N.R.I.E.G.T.C.Y.S.G.K.A.K.C.C.I.R}$PEPTIDE1,PEPTIDE1,5:R3-34:R3|PEPTIDE1,PEPTIDE1,12:R3-27:R3|PEPTIDE1,PEPTIDE1,17:R3-35:R3$$$V2.0; N-terminus and C-terminus assumed)
survival at lower bacterial dose (S. Typhimurium [1]): all the WT and TG mice survived until the end of the experiments | survival rate (S. Typhimurium [1]): 70% | level of IL-1β in serum (S. Typhimurium [2]; [7]): significantly lower than those of the WT mice (p < 0.05) | level of IL-6 in serum (S. Typhimurium [2]; [7]): significantly lower than those of the WT mice (p < 0.05) | level of IL-12 in serum (S. Typhimurium [2]; [7]): significantly lower than those of the WT mice (p < 0.05) | level of TNF-α in serum (S. Typhimurium [2]; [7]): significantly lower than those of the WT mice (p < 0.05) | level of IL-1β in serum (S. Typhimurium [2]; [8]): significantly lower levels of proinflammatory cytokines than the mice infected with S. Typhimurium alone did (p < 0.05) | level of IL-6 in serum (S. Typhimurium [2]; [8]): significantly lower levels of proinflammatory cytokines than the mice infected with S. Typhimurium alone did (p < 0.05) | level of IL-12 in serum (S. Typhimurium [2]; [8]): significantly lower levels of proinflammatory cytokines than the mice infected with S. Typhimurium alone did (p < 0.05) | level of TNF-α in serum (S. Typhimurium [2]; [8]): significantly lower levels of proinflammatory cytokines than the mice infected with S. Typhimurium alone did (p < 0.05) | LPS-induced phosphorylation of p38 (p38): did not affect the LPS-induced phosphorylation of ERK, p38, and JNK | LPS-induced phosphorylation of JNK (JNK): did not affect the LPS-induced phosphorylation of ERK, p38, and JNK | NF-κB promoter activity after LPS induction (NF-κB; LPS 1 μg/ml with PBD-2 10 μg/mL, 24 h): inhibited the promoter activities of NF-κB after LPS induction (p < 0.01) | NF-κB promoter activity in the presence of TLR4 inhibitor (NF-κB; PBD-2 10 μg/mL with LPS 1 μg/ml, 24 h, after CLI-095 1 μg/ml): did not influence the NF-κB promoter activity in the presence of TLR4 inhibitor (NS, p > 0.05) | inhibitory effect on NF-κB promoter activity after pre-incubation with PBD-2 (NF-κB; PBD-2 10, 30, and 60 μg/ml for 30, 60, 120, or 240 min, then LPS): positively correlated with dose and incubation time with PBD-2 (p < 0.05) | antibacterial activity, concentration dependence (bacteria; in vitro): positively related to its concentration | bactericidal activity in vitro (bacteria): high and broad spectrum of bactericidal activity in vitro | mucosal damage caused by DSS ([3]; mice): alleviate mucosal damage caused by dextran sodium sulfate (DSS) in mice | DSS-induced inflammation, NF-κB signaling [3]: suppresses the DSS-induced inflammation by suppressing the NF-κB signaling pathway | inflammation in DSS-induced colitis [3]: attenuates inflammation in DSS-induced colitis | hemolytic activity [4]: limited hemolytic activity | number of survived bacteria, caecum homogenate (S. Typhimurium [5]; heat-inactivated (56°C, 20 min) caecum homogenate of PBD-2 TG mice vs WT): the number of the survived bacteria in the serum and tissue homogenates of the WT mice was significantly higher than that in the serum and tissue homogenates of the TG mice (p < 0.05) | number of survived bacteria, colon homogenate (S. Typhimurium [5]; heat-inactivated (56°C, 20 min) colon homogenate of PBD-2 TG mice vs WT): the number of the survived bacteria in the serum and tissue homogenates of the WT mice was significantly higher than that in the serum and tissue homogenates of the TG mice (p < 0.05) | number of survived bacteria, serum (S. Typhimurium [5]; heat-inactivated (56°C, 20 min) serum of PBD-2 TG mice vs WT): the number of the survived bacteria in the serum and tissue homogenates of the WT mice was significantly higher than that in the serum and tissue homogenates of the TG mice (p < 0.05) | bacterial load in the caecum (S. Typhimurium [6]): smaller amount of bacterial load in the caecum compared with the WT mice (p < 0.05)

From article PMC6657668, “Porcine Beta-Defensin 2 Provides Protection Against Bacterial Infection by a Direct Bactericidal Activity and Alleviates Inflammation via Interference With the TLR4/NF-κB Pathway” (Frontiers in Immunology, 2019)
